This is an account of results in patent US11453642B2, “Oxygenated amino- or ammonium-containing sulfonic acid, phosphonic acid and carboxylic acid derivatives and their medical use” (GRI BIO, INC., priority 2011, dated 2022).

The subject of one series is RBL-2H3 cells. Nature of the series: Inhibition of mast cell degranulation (β-hexosaminidase release). Type of series: cell-based. The following applies: Rattus norvegicus, IgE-sensitized RBL-2H3 cells, 1 h with compound, antigen (DNP-HSA) 15 min. An excerpt: Mast cells are key effector cells involved in allergic and inflammatory diseases, and the Rat Basophilic Leukemia clone 2H3 (RBL-2H3) cell line is a commonly used model of allergen dependent immune modulator release (degranulation) in mast cells. On their surface, they express the high affinity receptor for IgE (FcεRI). Upon binding of antigen-specific IgE to the receptor, cells become sensitized to the IgE specific antigen (allergen). When IgE-sensitized cells then encounter multivalent antigen, the antigen clusters IgE-FcεRI complexes and initiates a signal transduction cascade that leads to degranulation, that is, the release of inflammatory mediators, such as cytokines, eicosanoids, histamine and enzymes. The assay can be used as a screening method to identify immune-modulating compounds, in particular compounds useful in the medical management of allergic and inflammatory diseases and asthma, β-hexosaminidase was previously shown to be released with the same kinetics as histamine (Schwartz et al., J Immunology; 123:1445-1450 (1979)), thus offering a simple means to monitor degranulation. […]
MUG substrate solution, 100 μl, were added to supernatant and lysate samples and plates were incubated 30 min at 37° C. […] Fluorescence was measured at 365 nm excitation and 440 nm emission wavelengths. […]

Series [1] in a line: Pharmacokinetic study after a single oral administration to mice. Type of series: in vivo. On the procedure:
The aim of the study was to evaluate pharmacokinetic (PK) properties of five different batches including anhydrates and monohydrates of the crystal form A of compound 1a (cf. Table 1 in Example 5) after a single oral administration to mice. Three of the forms were anhydrous and two were monohydrates.
Compound 1a was administered as a suspension of 0.5% methyl cellulose (Sigma-Aldrich) in water at a dose of 100 mg/kg (10 ml/kg) by oral gavage to non-fasted female Balb/c mice (n=3).
Blood was collected by decapitation at 0.5, 1, 2, 4, 8, 12, 24, and 48 h after administration. Blood plasma was isolated by centrifugation at 4° C. (20,000×g for 10 min), transferred to microtubes containing lithium-heparin and frozen in aliquots at −70° C. until assayed by mass-spectrometry. Mean plasma concentration-time profiles (semi-logarithmic) of the five polymorphic crystal forms of compound 1a are shown in FIG. 6.
For PK evaluation, summary statistics and plotting of concentration/time curves, all values below the lower limit of quantification (LLOQ) were set to zero.

Series [2] relates to collagen type II-induced arthritis (CIA).

As for `CCCCCCCCCCCCN(C)CC(O)CS(=O)(=O)O` (stereo not shown) [Compound 1c, 2-hydroxy-3-(N-methyldodecylammonio)propanesulfonate], in the series on RBL-2H3 cells, the IC50 turned out to be 4.1 µM.
Regarding `CCCCCCCCCCCCCCCCN(C)CC(O)CS(=O)(=O)O` (stereo not shown) [Compound 1a, 2-hydroxy-3-(N-methylhexadecylammonio)propane-sulfonate], the tmax in series [1] (female, Balb/c, mouse, plasma, po, 100 mg/kg, female Balb/c mice, single oral 100 mg/kg in 0.5% methylcellulose, plasma, read-out: tmax) fell in the range of 1 to 2 h. Further, the overt toxicity entry in series [1] (single oral 100 mg/kg, regardless of the polymorphic crystal form) was “No overt toxicity”. In series [2] (mouse, in vivo), the “spleen and thymus weights” value is given as “did not reduce”; the toxic effects result is reported as “did not show any toxic effects”. Further, the “cumulative arthritis score and paw thickness” value in series [2] (prophylactic regimen day 0-47, 25 and 100 mg/kg orally twice daily, vs vehicle) is given as “reduced”. In series [2] (therapeutic regimen, 100 mg/kg orally twice daily for 20 days, day 11 to 13 and day 21, vs vehicle), the “arthritis score and cumulative arthritis score” value is “significantly reduced”.

A word on the IC50: it is the concentration at which inhibition is half-maximal.
